From patent publication US10918610B2, “Compounds and methods of promoting myelination” (Case Western Reserve University, priority 2017, dated 2021)

Tested on: corpus callosum
Test: LPC-induced demyelination in corpus callosum, DTI-MRI fractional anisotropy
Assay type: in vivo, Sprague-Dawley male rats
Conditions: rats, 20 mg/kg intraperitoneal QD
Description: In total, 30 Sprague-Dawley male rats (˜200-300 g) were infused with lysophosphatidylcholine (LPC) on the ipsilateral side and with vehicle for LPC on the contralateral side of the corpus callosum in order to induce demyelination. […] Cis-N-cyclohexyl-N-ethyl-3-(3-chloro-4-cyclohexylphenyl)prop-2-enylamine was diluted to a final concentration of 2.5% ETOH and 2.5% Kolliphor in Saline. DTI-MRI was used as a primary method to quantify the demyelinated lesion and to assess the organization of white matter in corpus callosum over time, on days 3, 10 and 15. Day 3 served as a baseline followed by repeated analyses during the therapeutic period. On day 15, the animals were euthanized and tissue samples collected. The amount of demyelination and the extent of neuronal loss were analyzed by histological analysis of MBP and Nissl substance, respectively, in corpus callosum.
Demyelination in corpus callosum was induced by stereotactic infusion of lysophospatidylcholine (LPC, Santa Cruz, Calif., USA) directly to the target tissue. First, rats were anesthetized with 5% isoflurane (in 70% N20 and 30% 02; flow 300 ml/min) and placed in a stereotactic frame. […]
Analgesics were administered during and after the surgery. […] Rats were carefully monitored by laboratory personnel twice a day and any rats prematurely fulfilling the criteria for humane end-points were euthanized during the study. […]

CCN(C/C=C\c1ccc(C2CCCCC2)c(Cl)c1)C1CCCCC1 [Cis-N-cyclohexyl-N-ethyl-3-(3-chloro-4-cyclohexylphenyl)prop-2-enylamine]
ipsilateral FA measurements, difference between the groups at Day 15 (Day 15): trend in improvement
fractional anisotropy (FA) value of the ipsilateral side (FIG. 8B) (days 3-15 after LPC infusion, versus vehicle): noticeable recovery of the FA value
